# Entries after “also recorded” stand apart in the source; their conditions may differ. Structures can show the parent of a compound that is named as a salt. Where two headings read alike, the source gives them in different places.
# Experiments:
# [1] = target: T1, σ2 receptor (Rattus norvegicus, UniProt Q5U3Y7); assay: σ2 receptor binding assay, [3H]DTG or [3H]RHM-1; settings: for σ1/σ2 Ratio: Ki for σ1/Ki for σ2
# T1 construct: from tissue; host or cells: rat liver membrane homogenates
# T1 sequence (Q5U3Y7 1-176): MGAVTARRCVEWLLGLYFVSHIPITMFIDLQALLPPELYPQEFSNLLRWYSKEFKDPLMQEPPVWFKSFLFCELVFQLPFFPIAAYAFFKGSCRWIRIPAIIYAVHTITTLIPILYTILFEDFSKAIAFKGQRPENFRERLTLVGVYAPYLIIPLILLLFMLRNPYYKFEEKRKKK
# Protocol: (§1) In vitro binding studies were conducted in order to determine the affinity of the target compounds at σ1 and σ2 receptors.
# (§2) In this example, test compounds were dissolved in N,N-dimethylformamide (DMF), dimethylsulfoxide (DMSO) or ethanol and then diluted in 50 mM Tris-HCl, pH 7.4 buffer containing 150 mM NaCl and 100 mM EDTA. Membrane homogenates were made from guinea pig brain for σ1 binding assays and rat liver for σ2 binding assays. Membrane homogenates were diluted with 50 mM Tris-HCl buffer, pH 8.0, and incubated at 25° C. in a total volume of 150 μL in 96-well plates with the radioligand and test compounds with concentrations ranging from 0.1 nM to 10 μM. After incubation was completed, the reactions were terminated by the addition of 150 μL of ice-cold wash buffer (10 mM Tris-HCl, 150 mM NaCl, pH 7.4) using a 96-channel transfer pipette (Fisher Scientific, Pittsburgh, Pa.), and the samples harvested and filtered rapidly through 96-well fiberglass filter plate (Millipore, Billerica, Mass.) that had been presoaked with 100 μL of 50 mM Tris-HCl buffer, pH 8.0, for 1 h. Each filter was washed three times with 200 μL of ice cold wash buffer.
# (§3) Ki values were calculated using the method of Cheng and Prusoff20 and represent mean values±SEM.
# [2] = target: T2, σ1 receptor (Cavia porcellus, UniProt Q60492); assay: biochemical
# Protocol: as §1, §2, §3
# [3] = target: T2, σ1 receptor
# Protocol: as §1, §2, §3
# [4] = tested on: pancreatic cancer cell lines (Panc-02, CFPAC-1, AsPC-1, Panc-1); assay: Apoptosis in pancreas cancer cell lines (TUNEL / cleaved caspase-3, flow cytometry); format: cell-based, mouse, human; settings: 24 hours incubation
# Protocol: Tumor cells were seeded at a density of approximately 0.2×10^6 cells per well in 12-well plates in 1.0 ml culture medium. Cells were split and pre-incubated at 37° C. in humidified 5% CO2 for more than 24 hours (Panc-02) and 48 hours (CFPAC-1, AsPC-1, Panc-1) to insure uniform growth conditions. Compounds were dissolved in DMSO and added to the culture medium at the concentrations indicated. The final concentration of DMSO in the cell culture medium was less than 1%. The cells were then incubated for 24 hours at 37° C. in humidified 5% CO2. The extent of apoptosis was subsequently measured as previously reported (Guelen, L., et al., Oncogene 2004, 23: 1153-1165). Briefly, staining was performed on trypsin-EDTA treated cultures that had been fixed with 1% paraformaldehyde and 90% methanol. Cell pellets were resuspended in TUNEL reagent (APO-BRDU kit, San Diego, Calif.) or cleaved caspase-3 antibody (Cell Signaling Technology, Inc. Boston, Mass.) and incubated overnight at room temperature (TUNEL) or 4° C. (cleaved caspase-3). After washing, cells were resuspended in fluorescein antibody or 7-AAD buffer and incubated for 1 hour at room temperature. Cell-associated fluorescence was determined using a flow cytometry (FACScan, BD Biosciences) and analyzed with CellQuest software (BD Biosciences).
# At the highest dose tested (10 μM), all sigma-2 receptor ligands induced an additional 10-20% of the cells to undergo apoptosis (FIG. 15A). […] The pan-caspase inhibitor (Z-VAD-fmk) and caspase-3/7 inhibitor (DEVD-CHO) prevented sigma-2 receptor ligand-induced apoptosis in panc-02 cells, while the caspase-1 inhibitor (YVAD-CHO) had no effect (FIG. 15B).
# [5] = tested on: EMT-6 cells; settings: EMT-6, 1 h pre-incubation with inhibitor (100 μM), MTS assay
# Protocol: To determine the effect of blocking the caspase-dependent apoptotic pathway on sigma ligand-induced cell killing, the caspase inhibitors, Z-VAD-FMK or Z-DEVD-FMK (Calbiochem, San Diego, Calif.) were added to the culture medium 1 hour before the sigma ligands, and the MTS assay performed as described above.
# [6] = Ki σ2, inhibiting binding of [3H]DTG or [3H]RHM-1 to rat liver homogenates, mean ± SEM
# [7] = inhibiting binding of [3H]DTG or [3H]RHM-1 to rat liver homogenates, mean ± SEM, read-out: Ki σ2
# T2 sequence (Q60492 whole entry): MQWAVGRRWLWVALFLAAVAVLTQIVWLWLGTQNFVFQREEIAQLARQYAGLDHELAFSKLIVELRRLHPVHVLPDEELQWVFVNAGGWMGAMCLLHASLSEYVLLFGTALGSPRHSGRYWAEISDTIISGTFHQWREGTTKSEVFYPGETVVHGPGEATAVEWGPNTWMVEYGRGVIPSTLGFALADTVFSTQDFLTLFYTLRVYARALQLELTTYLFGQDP
Molecule,σ1/σ2 Ratio [1],"Ki [1, 6] [µM]",Ki [2] [µM],also measured
"COc1ccc(C)cc1NC(=O)OC1CC2CCCC(C1)N2CCCCN (stereo not drawn) [Compound 1a, N-(9-(4-Aminobutyl)-9-azabicyclo[3.3.1]nonan-3α-yl)-N-(2-methoxy-5-methyl-phenyl)carbamate hydrochloride]",193,0.0129 ± 0.00046,2.49 ± 0.271,affinity and selectivity for σ2 versus σ1 receptors (in words) [1]: moderate affinity and selectivity
"COc1ccc(C)cc1NC(=O)O[C@H]1C[C@H]2CCC[C@@H](C1)N2CCCCCCN.Cl [Compound 1b, N-(9-(6-Aminohexyl)-9-azabicyclo[3.3.1]nonan-3α-yl)-N-(2-methoxy-5-methyl-phenyl)carbamate hydrochloride]",273,,,"Ki [3]: 1.42 ± 0.439 µM; affinity and selectivity for σ2 versus σ1 receptors (in words) ([1]; hydrochloride): highest affinity and selectivity; also recorded: moderate affinity and selectivity; Ki [1, 7]: 0.00519 ± 0.0008 µM"
"COc1ccc(C)cc1NC(=O)OC1CC2CCCC(C1)N2CCCCCCCCCCN (stereo not drawn) [Compound 1c, N-(9-(10-Aminodecyl)-9-azabicyclo[3.3.1]nonan-3α-yl)-N-(2-methoxy-5-methylphenyl)carbamate hydrochloride]",19,,,"Ki [3]: 0.134 ± 0.0119 µM; affinity and selectivity for σ2 versus σ1 receptors (in words) [1]: high affinity at σ2 receptor but low selectivity; Ki [1, 7]: 0.00707 ± 0.00127 µM"
"COc1ccc(C)cc1NC(=O)OC1CC2CCCC(C1)N2CCCCNCc1cccc(Br)c1 (stereo not drawn) [Compound 2a, N-(9-(4-(3′-Bromobenzylamino)butyl)-9-azabicyclo[3.3.1]nonan-3α-yl)-N-(2-methoxy-5-methylphenyl)carbamate oxalate]",21.66,0.00306 ± 0.00041,0.0663 ± 0.0053,
"COc1ccc(C)cc1NC(=O)OC1CC2CCCC(C1)N2CCCCNCc1cccc(F)c1 (stereo not drawn) [Compound 2b, N-(9-(4-(3′-Fluorobenzylamino)butyl)-9-azabicyclo[3.3.1]nonan-3α-yl)-N-(2-methoxy-5-methylphenyl)carbamate oxalate]",0.07,0.00413 ± 0.00033,0.0003 ± 5e-05,
"COc1ccc(C)cc1NC(=O)O[C@H]1C[C@H]2CCC[C@@H](C1)N2CCCCNCc1cccc(I)c1 [Compound 2c, N-(9-(4-(3′-Iodobenzylamino)butyl)-9-azabicyclo-[3.3.1]nonan-3α-yl)-N-(2-methoxy-5-methylphenyl)carbamate oxalate]",52.77,0.00121 ± 0.00014,0.0639 ± 0.00561,
"COc1ccc(C)cc1NC(=O)OC1CC2CCCC(C1)N2CCCCNCc1ccc(Br)cc1 (stereo not drawn) [Compound 2d, N-(9-(4-(4′-Bromobenzylamino)butyl)-9-azabicyclo[3.3.1]nonan-3α-yl)-N-(2-methoxy-5-methylphenyl)carbamates]",0.42,0.00407 ± 0.00061,0.0017 ± 0.00028,
"COc1ccc(C)cc1NC(=O)OC1CC2CCCC(C1)N2CCCCNCc1ccc(F)cc1 (stereo not drawn) [Compound 2e, N-(9-(4-(4′-Fluorobenzylamino)butyl)-9-azabicyclo[3.3.1]nonan-3α-yl)-N-(2-methoxy-5-methylphenyl)carbamate oxalate]",0.76,0.0291 ± 0.00348,0.0221 ± 0.00158,
"COc1ccc(C)cc1NC(=O)OC1CC2CCCC(C1)N2CCCCNCc1ccc(I)cc1 (stereo not drawn) [Compound 2f, N-(9-(4-(4′-Iodobenzylamino)butyl)-9-azabicyclo[3.3.1]nonan-3α-yl)-N-(2-methoxy-5-methylphenyl)carbamate oxalate]",0.08,0.004 ± 0.00054,0.00034 ± 3e-05,
"COc1ccc(C)cc1NC(=O)OC1CC2CCCC(C1)N2CCCCCCNCc1cccc(Br)c1 (stereo not drawn) [Compound 3a, N-(9-(6-(3′-Bromobenzylamino)hexyl)-9-azabicyclo[3.3.1]nonan-3α-yl)-N-(2-methoxy-5-methylphenyl)carbamate oxalate]",12.57,0.00894 ± 0.00061,0.112 ± 0.0048,
"COc1ccc(C)cc1NC(=O)OC1CC2CCCC(C1)N2CCCCCCNCc1cccc(F)c1 (stereo not drawn) [Compound 3b, N-(9-(6-(3′-Fluorobenzylamino)hexyl)-9-azabicyclo[3.3.1]nonan-3α-yl)-N-(2-methoxy-5-methylphenyl)carbamate oxalate]",0.09,0.00485 ± 0.00049,0.00046 ± 5e-05,
"COc1ccc(C)cc1NC(=O)O[C@H]1C[C@H]2CCC[C@@H](C1)N2CCCCCCNCc1cccc(I)c1 [Compound 3c, N-(9-(6-(3′-Iodobenzylamino)hexyl)-9-azabicyclo-[3.3.1]nonan-3α-yl)-N-(2-methoxy-5-methylphenyl)carbamate oxalate]",0.02,0.0327 ± 0.00593,0.00056 ± 6e-05,
"COc1ccc(C)cc1NC(=O)OC1CC2CCCC(C1)N2CCCCCCNCc1ccc(Br)cc1 (stereo not drawn) [Compound 3d, N-(9-(6-(4′-Bromobenzylamino)hexyl)-9-azabicyclo[3.3.1]nonan-3α-yl)-N-(2-methoxy-5-methylphenyl)carbamate oxalate]",4.35,0.00993 ± 0.00161,0.0432 ± 0.00288,
"COc1ccc(C)cc1NC(=O)OC1CC2CCCC(C1)N2CCCCCCNCc1ccc(F)cc1 (stereo not drawn) [Compound 3e, N-(9-(6-(4′-Fluorobenzylamino)hexyl)-9-azabicyclo[3.3.1]nonan-3α-yl)-N-(2-methoxy-5-methylphenyl)carbamate oxalate]",0.01,0.0709 ± 0.00438,0.001 ± 0.00026,
"COc1ccc(C)cc1NC(=O)OC1CC2CCCC(C1)N2CCCCCCNCc1ccc(I)cc1 (stereo not drawn) [Compound 3f, N-(9-(6-(4′-Iodobenzylamino)hexyl)-9-azabicyclo[3.3.1]nonan-3α-yl)-N-(2-methoxy-5-methylphenyl)carbamate oxalate]",0.02,0.0359 ± 0.0015,0.00065 ± 9e-05,
COc1ccc(C)cc1NC(=O)OC1CC2CCCC(C1)N2CCCCCCNC(=O)c1ccc(Cl)cc1 (stereo not shown) [Compound 4a],392,0.00356 ± 8e-05,1.4 ± 0.064,affinity and selectivity for σ2 versus σ1 receptors (in words) [1]: high affinity and selectivity
"COc1ccc(C)cc1NC(=O)OC1CC2CCCC(C1)N2CCCCCCNC(=O)c1ccc(Br)cc1 (stereo not drawn) [Compound 4b, N-(9-(4-(4′-Bromobenzoylamino)hexyl)-9-azabicyclo[3.3.1]nonan-3α-yl)-N-(2-methoxy-5-methylphenyl)carbamate oxalate]",2.84,,2.04 ± 0.098,Ki ([1]; read-out: Ki σ2): 0.719 ± 0.084 µM
"COc1ccc(C)cc1NC(=O)OC1CC2CCCC(C1)N2CCCCCCNS(=O)(=O)c1cccc2c(N(C)C)cccc12 (stereo not drawn) [Compound 9, N-(9-(6-(5-Dimethylamino-1-naphthalenesulfonamido))hexyl)-9-azabicyclo[3.3.1]-nonan-3α-yl-N-(2-methoxy-5-methylphenyl)carbamate oxalate]",85.43,,12.6,affinity and selectivity for σ2 versus σ1 receptors (in words) [1]: moderate affinity and selectivity; Ki ([1]; read-out: Ki σ2): 0.148 ± 0.00885 µM
"O=C(CCCN1CCC(O)(c2ccc(Cl)cc2)CC1)c1ccc(F)cc1 [Haloperidol, reference compound]",,,,apoptosis in all pancreas cancer cell lines tested [4]: dose-dependent apoptosis
COc1ccc(C)cc1NC(=O)OC1C[C@H]2CCC[C@@H](C1)N2CCCCCCN (stereo partly shown) [SV119],273,,,"Ki [3]: 1.42 µM; Ki [1, 7]: 0.0052 µM"
COC(=O)CC[C@H](NC(=O)[C@H](CC(=O)OC)NC(=O)OCc1ccccc1)C(=O)N[C@H](C(=O)N[C@@H](CC(=O)OC)C(=O)CF)C(C)C [Z-DEVD-FMK],,,,"effect on cell death / cytotoxic effects induced by the three σ2 selective ligands [5]: partially blocked; also recorded: partially, but not completely, blocked"
N-(9-(4-(4′-Fluorobenzoylamino)hexyl)-9-azabicyclo[3.3.1]nonan-3α-yl)-N-(2-methoxy-5-methylphenyl)carbamate oxalate [Compound 4c],2.50,,,"Ki [3]: 1.24 ± 0.212 µM; Ki [1, 7]: 0.497 ± 0.103 µM"
N-(9-(4-(40-Iodobenzoylamino)hexyl)-9-azabicyclo[3.3.1]nonan-3α-yl)-N-(2-methoxy-5-methylphenyl)carbamate oxalate [Compound 4d],1.40,,,"Ki [3]: 1.41 ± 0.318 µM; Ki [1, 7]: 1.01 µM"

# From patent publication US8168650B2, “Therapeutic uses of bicyclic ligands of sigma 2 receptor” (priority 2006, dated 2012)
